# Experimental data taken from PubChem BioAssay (NCI).
# Where “and” joins values, the source holds several entries; their conditions need not be identical. Equal entries are not always repeated.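 Cultured in 96-well plates, cells were exposed to test compound for 48 hours across five concentrations. GI50 is the concentration that inhibits growth by half. TGI denotes the concentration required for complete inhibition of growth.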
# Experiments:
# Assay in all cases: NCI tumour cell line growth inhibition, 48 h
# SF-539 CNS = tested on: SF-539 CNS
# SK-MEL-28 melanoma = tested on: SK-MEL-28 melanoma
# M14 melanoma = tested on: M14 melanoma
# A549 NSCLC = tested on: A549 NSCLC
# NCI-H226 lung = tested on: NCI-H226 lung
# T-47D breast = tested on: T-47D breast
# A498 renal = tested on: A498 renal
# HCT-116 colon = tested on: HCT-116 colon
# HT29 colon = tested on: HT29 colon
# 786-0 renal = tested on: 786-0 renal
# DU-145 prostate = tested on: DU-145 prostate
# HOP-18 NSCLC = tested on: HOP-18 NSCLC
# MALME-3M melanoma = tested on: MALME-3M melanoma
# OVCAR-3 ovarian = tested on: OVCAR-3 ovarian
# TK-10 renal = tested on: TK-10 renal
# SK-OV-3 ovarian = tested on: SK-OV-3 ovarian
# SF-268 CNS = tested on: SF-268 CNS
# SN12C renal = tested on: SN12C renal
# SNB-75 CNS = tested on: SNB-75 CNS
# CAKI-1 renal = tested on: CAKI-1 renal
# NCI-H23 lung = tested on: NCI-H23 lung
# NCI-H460 lung = tested on: NCI-H460 lung
# UO-31 renal = tested on: UO-31 renal
# CCRF-CEM leukemia = tested on: CCRF-CEM leukemia
# RPMI-8226 leukemia = tested on: RPMI-8226 leukemia
# OVCAR-8 ovarian = tested on: OVCAR-8 ovarian
# EKVX NSCLC = tested on: EKVX NSCLC
# U251 CNS = tested on: U251 CNS
# SW-620 colon = tested on: SW-620 colon
# MDA-MB-231 breast = tested on: MDA-MB-231 breast
# COLO 205 colon = tested on: COLO 205 colon
# SN12K1 renal = tested on: SN12K1 renal
# UACC-257 melanoma = tested on: UACC-257 melanoma
# SNB-19 CNS = tested on: SNB-19 CNS
# BT-549 breast = tested on: BT-549 breast
# RXF 393 renal = tested on: RXF 393 renal
# XF 498 CNS = tested on: XF 498 CNS
# OVCAR-5 ovarian = tested on: OVCAR-5 ovarian
# MDA-N = tested on: MDA-N
# MDA-MB-435 = tested on: MDA-MB-435
# SR leukemia = tested on: SR leukemia
# SK-MEL-2 melanoma = tested on: SK-MEL-2 melanoma
# M19-MEL melanoma = tested on: M19-MEL melanoma
# SNB-78 CNS = tested on: SNB-78 CNS
# IGROV1 ovarian = tested on: IGROV1 ovarian
# KM12 colon = tested on: KM12 colon
# MCF7 breast = tested on: MCF7 breast
# HS 578T breast = tested on: HS 578T breast
# DMS 114 small cell lung = tested on: DMS 114 small cell lung
# HOP-92 NSCLC = tested on: HOP-92 NSCLC
# P388/ADR leukemia = tested on: P388/ADR leukemia
# LOX IMVI melanoma = tested on: LOX IMVI melanoma
# HOP-62 NSCLC = tested on: HOP-62 NSCLC
# NCI-H522 lung = tested on: NCI-H522 lung
# UACC-62 melanoma = tested on: UACC-62 melanoma
# HL-60(TB) leukemia = tested on: HL-60(TB) leukemia
# HCC-2998 colon = tested on: HCC-2998 colon
# K-562 leukemia = tested on: K-562 leukemia
# MOLT-4 leukemia = tested on: MOLT-4 leukemia
# KM20L2 colon = tested on: KM20L2 colon
# HCT-15 colon = tested on: HCT-15 colon
# ACHN renal = tested on: ACHN renal
# NCI/ADR-RES ovarian = tested on: NCI/ADR-RES ovarian
# SK-MEL-5 melanoma = tested on: SK-MEL-5 melanoma
# DLD-1 colon = tested on: DLD-1 colon
# P388 leukemia = tested on: P388 leukemia
# OVCAR-4 ovarian = tested on: OVCAR-4 ovarian
# PC-3 prostate = tested on: PC-3 prostate
# DMS 273 small cell lung = tested on: DMS 273 small cell lung
# SF-295 CNS = tested on: SF-295 CNS
compound,measurement,setting,value
CNC(=O)ON(C(C)=O)C(=O)NC,TGI,SF-539 CNS,145 µM
same,TGI,SK-MEL-28 melanoma,159 µM
same,GI50,M14 melanoma,> 83.2 µM
same,TGI,M14 melanoma,41 µM
same,TGI,A549 NSCLC,283 µM
same,TGI,NCI-H226 lung,230 µM
same,TGI,T-47D breast,33.5 µM
same,TGI,A498 renal,211 µM
same,TGI,HCT-116 colon,136 µM
same,GI50,HT29 colon,94.1 µM
same,TGI,HT29 colon,242 µM
same,GI50,786-0 renal,> 93.8 µM
same,TGI,786-0 renal,34.4 µM
same,TGI,DU-145 prostate,135 µM
same,TGI,HOP-18 NSCLC,242 µM
same,GI50,MALME-3M melanoma,> 78.6 µM
same,TGI,MALME-3M melanoma,129 µM
same,GI50,OVCAR-3 ovarian,> 81.9 µM
same,TGI,OVCAR-3 ovarian,140 µM
same,TGI,TK-10 renal,70.6 µM
same,TGI,SK-OV-3 ovarian,276 µM
same,TGI,SF-268 CNS,323 µM
same,TGI,SN12C renal,166 µM
same,TGI,SNB-75 CNS,182 µM
same,TGI,CAKI-1 renal,146 µM
same,TGI,NCI-H23 lung,156 µM
same,TGI,NCI-H460 lung,220 µM
same,TGI,UO-31 renal,114 µM
same,GI50,CCRF-CEM leukemia,20.1 µM and 6.17 µM
same,TGI,CCRF-CEM leukemia,> 65.9 µM and 43 µM
same,GI50,RPMI-8226 leukemia,41.4 µM and 25.2 µM
same,TGI,RPMI-8226 leukemia,> 77.2 µM and 111 µM
same,TGI,OVCAR-8 ovarian,235 µM
same,GI50,EKVX NSCLC,108 µM
same,TGI,EKVX NSCLC,241 µM
same,GI50,U251 CNS,93 µM
same,TGI,U251 CNS,222 µM
same,GI50,SW-620 colon,> 94 µM
same,TGI,SW-620 colon,224 µM
same,GI50,MDA-MB-231 breast,28.8 µM
same,TGI,MDA-MB-231 breast,78.4 µM
same,GI50,COLO 205 colon,> 70 µM and 47.5 µM
same,TGI,COLO 205 colon,142 µM
same,TGI,SN12K1 renal,192 µM
same,TGI,UACC-257 melanoma,159 µM
same,TGI,SNB-19 CNS,359 µM
same,GI50,BT-549 breast,> 45.2 µM
same,TGI,BT-549 breast,60.5 µM
same,TGI,RXF 393 renal,107 µM
same,TGI,XF 498 CNS,131 µM
same,TGI,OVCAR-5 ovarian,276 µM
same,GI50,MDA-N,> 85.8 µM
same,TGI,MDA-N,73.6 µM
same,TGI,MDA-MB-435,50.2 µM
same,GI50,SR leukemia,7.31 µM
same,TGI,SR leukemia,> 72.3 µM
same,GI50,SK-MEL-2 melanoma,38.3 µM
same,TGI,SK-MEL-2 melanoma,98.5 µM
same,TGI,M19-MEL melanoma,401 µM
same,TGI,SNB-78 CNS,384 µM
same,TGI,IGROV1 ovarian,241 µM
same,TGI,KM12 colon,166 µM
same,TGI,MCF7 breast,154 µM
same,GI50,HS 578T breast,49.9 µM
same,TGI,HS 578T breast,216 µM
same,TGI,DMS 114 small cell lung,126 µM
same,GI50,HOP-92 NSCLC,> 56 µM
same,TGI,HOP-92 NSCLC,64.4 µM
same,TGI,P388/ADR leukemia,111 µM
same,GI50,LOX IMVI melanoma,65.2 µM
same,TGI,LOX IMVI melanoma,119 µM
same,TGI,HOP-62 NSCLC,309 µM
same,TGI,NCI-H522 lung,73.5 µM
same,GI50,UACC-62 melanoma,> 88.2 µM
same,TGI,UACC-62 melanoma,149 µM
same,GI50,HL-60(TB) leukemia,14.2 µM and 8.38 µM
same,TGI,HL-60(TB) leukemia,37.7 µM and 29.5 µM
same,TGI,HCC-2998 colon,272 µM
same,GI50,K-562 leukemia,51.8 µM and 26.6 µM
same,TGI,K-562 leukemia,241 µM
same,GI50,MOLT-4 leukemia,35.7 µM and 19.1 µM
same,TGI,MOLT-4 leukemia,> 91.5 µM and 92 µM
same,TGI,KM20L2 colon,324 µM
same,GI50,HCT-15 colon,> 76.4 µM
same,TGI,HCT-15 colon,109 µM
same,GI50,ACHN renal,> 60.8 µM
same,TGI,ACHN renal,47.7 µM
same,TGI,NCI/ADR-RES ovarian,266 µM
same,TGI,SK-MEL-5 melanoma,107 µM
same,TGI,DLD-1 colon,326 µM
same,TGI,P388 leukemia,62.4 µM
same,TGI,OVCAR-4 ovarian,142 µM
same,TGI,PC-3 prostate,60.7 µM
same,TGI,DMS 273 small cell lung,241 µM
same,TGI,SF-295 CNS,267 µM
